Data: patent US20220372433A1 (priority 2021, published 2022)

What was measured:
Lactobacillus plantarum = test system: Lactobacillus plantarum; design: unit not given here; conditions: regulatory cut-off for Lactobacillus plantarum; cited from earlier work
[1] = test system: Lactobacillus plantarum HG-23; experiment: Antibiotic sensitivity test (microdilution method, MIC); type: cell-based; conditions: cultured for 48 h
Description: The antibiotic resistance of HG-23 was detected by a microdilution method. a series of 2-fold dilutions were performed on antibacterial drugs to be tested (Gentamicin, Kanamycin, Tetracycline, Erythromycin, Clindamycin, Chloramphenicol, Amplicilin, with initial concentrations of 1024 ug/ml, 256 ug/ml, 64 ug/ml, 8 ug/ml, 16 ug/ml, 64 ug/ml, 16 ug/ml) for 12 times, then added into corresponding wells of 96-well plates, and then […] diluted test bacterial solutions were added into the corresponding wells. After being cultured for 48 h, the minimum inhibitory concentration (MIC) well of the antibacterial drug, namely the sensitivity of the test strain, was observed.

For Gentamicin, the “EFSA specified safety value (Lactobacillus plantarum)” value (Lactobacillus plantarum) is listed as 16 and the “minimum inhibitory concentration (MIC) of antibiotic against HG-23” value [1] is listed as 8 µg/mL.
